Measurements as given in patent US20240374626A1, “METHODS OF ENHANCING MILK PRODUCTION IN LACTATING MAMMALIAN SUBJECTS” (priority 2023, published 2024).

System: HC11 cells
Assay: Milk production markers in differentiated HC11 (milk domes, Csn2 RT-qPCR, CSN2 WB, PLIN2 ICC)
Format: cell-based, mouse
Details: HC11, doxorubicin 50 nM, differentiated
Description: The HC11 cell line was obtained from American Type Culture Collection (ATCC) and routinely checked for mycoplasma (Mycoplasma PCR kit, ABM, G238). Undifferentiated HC11 cells were cultured in growing medium (RPMI-1640; Thermo Fisher Scientific, 72400047), supplemented with 10% FBS, 5 μg/ml insulin (Millipore-Sigma, 16634), 10 ng/ml epidermal growth factor (EGF; Preprotech, AF-100-15) and 1× AntiAnti (Thermo Fisher Scientific, 15240112) at 37° C. with 5% CO2. Cells were grown to confluency and maintained in growing medium for 2 days, until they became competent. Competent HC11 cells were primed for differentiation by culturing them in priming medium [RPMI-1640 supplemented with 5 μg/ml insulin, 1 μM dexamethasone (Millipore-Sigma, D4902-1 G) and 1× Anti-Anti] for 24 h at 37° C. with 5% CO2. To induce differentiation, primed HC11 cells were cultured in DIP Medium [RPMI-1640, supplemented with 10% FBS, 5 μg/ml insulin, 1 μM dexamethasone, 1× anti-anti and 3 μg/ml Prolactin (NHPP, oPRL-21)] at 37° C. with 5% CO2.
[…] Drugs were maintained through the differentiation process and added with every change of media.
Whole cell lysates were prepared using 1×NP40 lysis buffer (Thermo Fisher Scientific, FNN0021) supplemented with Pierce Protease and Phosphatase inhibitors (Thermo Fisher Scientific, A32959). Cells were washed with ice-cold PBS (GIBCO, 14190136) and lysed direct in buffer and kept at 4° C. rocking at 70 rpm for 30 min. Lysed cells were collected and centrifuged at 12,000 rpm at 4° C. for 15 min. Protein concentration was quantified using Qubit 4 fluorometer (Thermo Fisher, Q33238). Samples were resolved by SDS page and transferred to polyvinylidene difluoride (PVDF, Millipore-Sigma, IPVH00010) for 60 min at 250 mA. Immunoblots were blocked for 1 h at room temperature using either 5% non-fat milk or 5% BSA TBST. Primary antibodies [anti-GAPDH (SCBT, sc-365062), anti-Actin (SCBT, sc-47778), anti-Cyclin B1 (SCBT, sc-245), anti-Cyclin E1 (Millipore-Sigma, SAB4503516) and anti-CSN2 (ABclonal, A12749)] were incubated overnight at 4° C. in a rocker. HRP-conjugated secondary antibodies ([…]) were used for 1 h at room temperature. Immunoblots were developed using Clarity ECL (Bio-Rad), detected using a Bio-Rad ChemiDoc MP Image, and quantified using ImageJ.
HC11 cells were fixed using ice-cold MeOH for 10 min. After washing with 1×PBS, cells were incubated for 1 h at room temperature with primary antibodies [anti-γH2AX (SCBT, sc-517348), anti-pATR (Genetex, GTX128145), anti-PLIN2 (generously provided by Jim McManaman)] in a humid incubation chamber. After incubation, cells were washed three times using 1×PBS and incubated for 1 h at room temperature in darkness using corresponding Alexa Fluor AffiniPure secondary antibodies (Jackson ImmunoResearch) and Phalloidin-iFluor 488 Reagent (Abcam, ab176753) when indicated. Cells were washed three times using 1×PBS and incubated with Hoechst 33342 (AnaSpec, AS-83218) for 10 min. Cells were mounted using fluoromount-G (Southern Biotech, 0100-01) and visualized using Zeiss Axio Imager Microscope. Integrated density of PLIN2, nuclear γH2AX and nuclear pATR was quantify using ImageJ.
For RNA isolation from FACS purified populations, mammary gland cell suspensions were blocked using Mouse BD Fc Block™ (BD Biosciences) for 10 min. Cells were subsequently resuspended on 1×PBS at a density of 10^7 cells/ml and stained with the following antibodies for 30 min on ice: anti-CD24 PE (Stem Cell Technologies, 60099PE.1), anti-CD29 PE-Cy7 (BioLegend, 102222), anti-CD45-APC (BioLegend,105826), Ter119-APC (BD Biosciences, 561033), CD31-ACP (BD Biosciences, 551262). Propidium iodide at a final concentration of 0.5 μg/ml was used for the discrimination of dead cells. Stromal, basal and luminal mammary populations were sorted using a BD FACS Aria II Cell Sorter. […]

COc1cccc2c1C(=O)c1c(O)c3c(c(O)c1C2=O)C[C@@](O)(C(=O)CO)C[C@@H]3O[C@H]1C[C@H](N)[C@H](O)[C@H](C)O1 [doxorubicin]
CSN2, WB: increase
